Reference: patent US20140249135A1, “PIM KINASE INHIBITORS AND METHODS OF THEIR USE” (NOVARTIS AG, priority 2007, published 2014)

Legend:
Assay type in all cases: biochemical
[1] = target: Pim1 kinase (Homo sapiens, UniProt P11309); test: Pim1 ATP depletion assay; details: Pim1 ATP depletion assay; read-out: IC50 (μM) PIM1;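 further: Luciferase-luciferin luminescence readout of residual ATP after PIM1 transfers phosphate to a peptide substrate, 40 µM ATP added, reaction run to roughly half ATP consumption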
[2] = target: Pim2 kinase (Homo sapiens, UniProt Q9P1W9); test: Pim2 ATP depletion assay; details: read-out: IC50 (μM) PIM2;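 further: Luciferase-based luminescent readout of ATP remaining after PIM2 phosphorylates a BAD peptide, final 5 nM enzyme, 4 µM ATP, 10 µM peptide, 2.5% DMSO, run to roughly half ATP consumption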
[3] = target: Pim3 kinase (Homo sapiens, UniProt Q86V86); test: Pim3 ATP depletion assay; details: read-out: IC50 (μM) PIM3

Measured: IC50

Pim1 kinase, sequence (P11309 whole entry): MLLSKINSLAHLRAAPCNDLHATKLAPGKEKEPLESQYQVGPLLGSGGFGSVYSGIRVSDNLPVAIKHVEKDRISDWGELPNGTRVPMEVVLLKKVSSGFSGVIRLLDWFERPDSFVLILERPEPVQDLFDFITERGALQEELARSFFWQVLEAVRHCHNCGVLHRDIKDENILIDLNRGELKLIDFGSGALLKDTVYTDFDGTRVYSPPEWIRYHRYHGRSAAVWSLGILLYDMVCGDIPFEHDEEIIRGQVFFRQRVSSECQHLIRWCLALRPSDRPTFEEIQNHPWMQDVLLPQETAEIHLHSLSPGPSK
Pim2 kinase, sequence (Q9P1W9 whole entry): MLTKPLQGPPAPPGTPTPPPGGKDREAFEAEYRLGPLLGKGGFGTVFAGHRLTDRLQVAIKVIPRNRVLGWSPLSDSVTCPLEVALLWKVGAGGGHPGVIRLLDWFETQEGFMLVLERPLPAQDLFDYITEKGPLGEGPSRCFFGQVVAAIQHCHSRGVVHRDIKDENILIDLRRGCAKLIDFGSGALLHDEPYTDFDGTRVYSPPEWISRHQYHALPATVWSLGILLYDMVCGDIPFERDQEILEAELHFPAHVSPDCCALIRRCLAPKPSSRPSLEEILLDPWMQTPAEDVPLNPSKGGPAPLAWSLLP

COc1cc(F)c(-c2ccc(N)c(C(=O)Nc3cnccc3N3CCC[C@H](N)C3)n2)cc1F [Example 477, 3-Amino-6-(2,5-difluoro-4-methoxy-phenyl)-pyridine-2-carboxylic acid (3-amino-3,4,5,6-tetrahydro-2H-[1,4′]bipyridinyl-3′-yl)-amide]
< 1 µM: all assays above

Cc1cc(F)c(-c2ccc(N)c(C(=O)Nc3cnccc3N3CCC[C@H](N)C3)n2)cc1Cl [Example 478, 3-Amino-6-(5-chloro-2-fluoro-4-methyl-phenyl)-pyridine-2-carboxylic acid (3-amino-3,4,5,6-tetrahydro-2H-[1,4′]bipyridinyl-3′-yl)-amide]
< 1 µM: all assays above

Nc1ccc(-c2cccc(Cl)c2F)nc1C(=O)Nc1cnccc1N1CCC[C@H](N)C1 [Example 479, 3-Amino-6-(3-chloro-2-fluoro-phenyl)-pyridine-2-carboxylic acid (3-amino-3,4,5,6-tetrahydro-2H-[1,4′]bipyridinyl-3′-yl)-amide]
< 1 µM: all assays above

Nc1ccc(-c2ccc(S(N)(=O)=O)cc2)nc1C(=O)Nc1cnccc1N1CCC[C@H](N)C1 [Example 480, 3-Amino-6-(4-sulfamoyl-phenyl)-pyridine-2-carboxylic acid (3-amino-3,4,5,6-tetrahydro-2H-[1,4′]bipyridinyl-3′-yl)-amide]
< 1 µM: all assays above

Nc1ccc(-c2cccc(S(N)(=O)=O)c2)nc1C(=O)Nc1cnccc1N1CCC[C@H](N)C1 [Example 481, 3-Amino-6-(3-sulfamoyl-phenyl)-pyridine-2-carboxylic acid (3-amino-3,4,5,6-tetrahydro-2H-[1,4′]bipyridinyl-3′-yl)-amide]
< 1 µM: all assays above

Nc1ncc(-c2ccc(N)c(C(=O)Nc3cnccc3N3CCC[C@H](N)C3)n2)c(C(F)(F)F)n1 [Example 486, 3-Amino-6-(2-amino-4-trifluoromethyl-pyrimidin-5-yl)-pyridine-2-carboxylic acid (3-amino-3,4,5,6-tetrahydro-2H-[1,4′]bipyridinyl-3′-yl)-amide]
< 1 µM: all assays above

CC(C)Oc1ccc(F)c(-c2ccc(N)c(C(=O)Nc3cnccc3N3CCC[C@H](N)C3)n2)c1F [Example 488, 3-Amino-6-(2,6-difIuoro-3-isopropoxy-phenyl)-pyridine-2-carboxylic acid (3-amino-3,4,5,6-tetrahydro-2H-[1,4′]bipyridinyl-3′-yl)-amide]
< 1 µM: all assays above

Cc1cscc1-c1ccc(N)c(C(=O)Nc2cnccc2N2CCC[C@H](N)C2)n1 [Example 489, 3-Amino-6-(4-methyl-thiophen-3-yl)-pyridine-2-carboxylic acid (3-amino-3,4,5,6-tetrahydro-2H-[1,4′]bipyridinyl-3′-yl)-amide]
< 1 µM: all assays above

N#Cc1ccsc1-c1ccc(N)c(C(=O)Nc2cnccc2N2CCC[C@H](N)C2)n1 [Example 490, 3-Amino-6-(3-cyano-thiophen-2-yl)-pyridine-2-carboxylic acid (3-amino-3,4,5,6-tetrahydro-2H-[1,4′]bipyridinyl-3′-yl)-amide]
< 1 µM: all assays above

CCOc1ccc(F)c(-c2ccc(N)c(C(=O)Nc3cnccc3N3CCC[C@H](N)C3)n2)c1F [Example 492, 3-Amino-6-(3-ethoxy-2,6-difluoro-phenyl)-pyridine-2-carboxylic acid (3-amino-3,4,5,6-tetrahydro-2H-[1,4′]bipyridinyl-3′-yl)-amide]
< 1 µM: all assays above

COc1ccc(F)c(-c2ccc(N)c(C(=O)Nc3cnccc3N3CCC[C@H](N)C3)n2)c1F [Example 493, 3-Amino-6-(2,6-difluoro-3-methoxy-phenyl)-pyridine-2-carboxylic acid (3-amino-3,4,5,6-tetrahydro-2H-[1,4′]bipyridinyl-3′-yl)-amide]
< 1 µM: all assays above

CCOc1ccc(F)c(-c2nc(C(=O)Nc3cnccc3N3CCC[C@H](N)C3)c(N)cc2F)c1F [Example 495, 3-Amino-6-(3-ethoxy-2,6-difluoro-phenyl)-5-fluoro-pyridine-2-carboxylic acid (3-amino-3,4,5,6-tetrahydro-2H-[1,4′]bipyridinyl-3′-yl)-amide]
< 1 µM: all assays above

Nc1cc(F)c(-c2cccc(S(N)(=O)=O)c2)nc1C(=O)Nc1cnccc1N1CCC[C@H](N)C1 [Example 497, 3-Amino-5-fluoro-6-(3-sulfamoyl-phenyl)-pyridine-2-carboxylic acid (3-amino-3,4,5,6-tetrahydro-2H-[1,4′]bipyridinyl-3′-yl)-amide]
< 1 µM: all assays above

CS(=O)(=O)Nc1cccc(-c2nc(C(=O)Nc3cnccc3N3CCC[C@H](N)C3)c(N)cc2F)c1 [Example 498, 3-Amino-5-fluoro-6-(3-methanesulfonylamino-phenyl)-pyridine-2-carboxylic acid (3-amino-3,4,5,6-tetrahydro-2H-[1,4′]bipyridinyl-3′-yl)-amide]
< 1 µM: all assays above

Nc1cc(F)c(-c2ccccc2)nc1C(=O)Nc1cnccc1N1CCC[C@H](N)C1 [Example 499, 3-Amino-5-fluoro-6-phenyl-pyridine-2-carboxylic acid (3-amino-3,4,5,6-tetrahydro-2H-[1,4′]bipyridinyl-3′-yl)-amide]
< 1 µM: all assays above

CC(=O)Nc1cccc(-c2nc(C(=O)Nc3cnccc3N3CCC[C@H](N)C3)c(N)cc2F)c1 [Example 500, 6-(3-Acetylamino-phenyl)-3-amino-5-fluoro-pyridine-2-carboxylic acid (3-amino-3,4,5,6-tetrahydro-2H-[1,4′]bipyridinyl-3′-yl)-amide]
< 1 µM: all assays above

COc1ccc(F)cc1-c1nc(C(=O)Nc2cnccc2N2CCC[C@H](N)C2)c(N)cc1F [Example 501, 3-Amino-5-fluoro-6-(5-fluoro-2-methoxy-phenyl)-pyridine-2-carboxylic acid (3-amino-3,4,5,6-tetrahydro-2H-[1,4′]bipyridinyl-3′-yl)-amide]
< 1 µM: all assays above

COc1ccc(F)c(-c2nc(C(=O)Nc3cnccc3N3CCC[C@H](N)C3)c(N)cc2F)c1 [Example 502, 3-Amino-5-fluoro-6-(2-fluoro-5-methoxy-phenyl)-pyridine-2-carboxylic acid (3-amino-3,4,5,6-tetrahydro-2H-[1,4′]bipyridinyl-3′-yl)-amide]
< 1 µM: all assays above

CC(C)NC(=O)c1ccc(F)c(-c2ccc(N)c(C(=O)Nc3cnccc3N3CCC[C@H](N)C3)n2)c1F [Example 503, 3-Amino-6-(2,6-difluoro-3-isopropylcarbamoyl-phenyl)-pyridine-2-carboxylic acid (3-amino-3,4,5,6-tetrahydro-2H-[1,4′]bipyridinyl-3′-yl)-amide]
< 1 µM: all assays above

COC(=O)c1nc(-c2ccc(N)c(C(=O)Nc3cnccc3N3CCC[C@H](N)C3)n2)c(F)cc1N [Example 504, 5,5′-Diamino-6′-(3-amino-3,4,5,6-tetrahydro-2H-[1,4′]bi-pyridinyl-3′-ylcarbamoyl)-3-fluoro-[2,2′]bipyridinyl-6-carboxylic acid methyl ester]
< 1 µM: all assays above

CCCCOc1ccc(F)c(-c2nc(C(=O)Nc3cnccc3N3CCC[C@H](N)C3)c(N)cc2F)c1F [Example 506, 3-Amino-6-(3-butoxy-2,6-difluoro-phenyl)-5-fluoro-pyridine-2-carboxylic acid (3-amino-3,4,5,6-tetrahydro-2H-[1,4′]bipyridinyl-3′-yl)-amide]
< 1 µM: all assays above

COc1cncc(-c2nc(C(=O)Nc3cnccc3N3CCC[C@H](N)C3)c(N)cc2F)n1 [Example 507, 3-Amino-5-fluoro-6-(6-methoxy-pyrazin-2-yl)-pyridine-2-carboxylic acid (3-amino-3,4,5,6-tetrahydro-2H-[1,4′]bipyridinyl-3′-yl)-amide]
< 1 µM: all assays above

CC(C)NC(=O)c1ccc(F)c(-c2nc(C(=O)Nc3cnccc3N3CCC[C@H](N)C3)c(N)cc2F)c1 [Example 508, 3-Amino-5-fluoro-6-(2-fluoro-5-isopropylcarbamoyl-phenyl)-pyridine-2-carboxylic acid (3-amino-3,4,5,6-tetrahydro-2H-[1,4′]bipyridinyl-3′-yl)-amide]
< 1 µM: all assays above
